# Where two headings read alike, the source gives them in different places.
# Legend:
# human NK3 receptor [1] = target: T1, human NK3 receptor (Homo sapiens, UniProt P29371); assay: NK3 receptor binding assay (SPA-based competition binding with 125I-NKB, membranes of BHK cells)
# T1 construct: expressed in transfected cells; membranes prepared from them
# T1 sequence (P29371 1-465): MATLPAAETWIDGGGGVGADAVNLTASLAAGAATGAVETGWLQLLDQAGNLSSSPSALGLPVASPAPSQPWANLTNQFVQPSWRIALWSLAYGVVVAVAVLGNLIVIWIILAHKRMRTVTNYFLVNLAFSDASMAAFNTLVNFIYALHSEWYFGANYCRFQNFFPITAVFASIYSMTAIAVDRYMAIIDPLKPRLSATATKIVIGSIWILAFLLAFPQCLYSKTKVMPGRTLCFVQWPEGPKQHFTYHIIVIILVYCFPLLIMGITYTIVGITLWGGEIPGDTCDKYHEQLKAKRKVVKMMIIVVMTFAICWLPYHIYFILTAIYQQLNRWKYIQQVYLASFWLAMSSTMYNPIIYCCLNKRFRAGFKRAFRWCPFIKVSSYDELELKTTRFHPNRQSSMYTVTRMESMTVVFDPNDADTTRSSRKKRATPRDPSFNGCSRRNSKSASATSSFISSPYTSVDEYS
# Procedure: Membranepreparation: BHK cells stably expressing the human NK3 receptor were seeded in harvesting plates in Dulbeccos MEM containing GlutaMax (862 mg/l), 1 mM sodium pyruvate, 10% fetal calf serum, 1% Pen/Strep, I mg/ml G418 and were grown at 34 °C in a humidified atmosphere containing 10% CO2. To increase receptor expression, 10 µM trichotatin A was added to the media 24 hours before harvest of the cells at a confluency of app 90%. Prior to the harvesting, the cells were washed twice with PBS without Mg^2+ og Ca^2+ and subsequently scrapped of in 10 ml PBS pr harvesting plate. The cells suspension were centrifuged at 1500xG in three minutes before resuspension in 15 mM Tris-HCl pH 7,5 buffer containing 2 mM MgCl2; 0,3 mM EDTA and 1 mM EGTA (buffer A). The cell suspention was homogenised and subsequently centrifuged at 40000xG in 30 minutes. The membrane-pellet was resuspended in buffer A containing 250 mM sucrose, alliquoted and stored at - 80°C.
# Affinity assay description: The assay was performed as a SPA-based competition-binding assay in a 50 mM Tris pH 7.4 assay buffer containing 120 mM NaCl, 3 mM MnCl2, 40 µg/ml bacitracin, 2 µg/ml Chymostatin, 1 µg/ml Phosphoramidon and 4 µg/ml Leupeptin. App 0.02 nM ^125I-NKB was mixed with test compounds before addition of 4 µg of the homogenised NK3 membrane preparation and 0,025 mg SPA beads in a total volume of 60 µl. The assay plate was subsequently under agitation incubated for 90 min at RT. The plate was centrifugated 10 minutes at 500xG and counted in a topcounter 5 minuttes pr well.
# The non-specific binding constituted app 5 % of the total binding.
# Data points were expressed in percent of the specific binding of ^125I-NKB and the IC50 values (concentration causing 50 percent inhibition of ^125I-NKB specific binding) were determined by non-linear regression analysis using a sigmoidal variable slope curve fitting. The dissociation constant (Ki) were calculated from the Cheng Prusoff equation (Ki = IG50/(1+(L/KD))), where the concentration of free radioligand L is approximated to the concentration of added ^125I-NKB in the assay (app 0,02 nM).
# The KD of ^125I-NKB was determined to be 0,7 nM from three independent saturation assays each performed with duplicate determinations. Bmax was app 2 pmol/mg.
# human NK3 receptor [2] = target: T1, human NK3 receptor; assay: NK3 receptor efficacy and potency assay (FLIPR Calcium 4 assay, BHK cells; agonist and antagonist mode versus NKB); assay type: cell-based; conditions: read-out: Potency cIC50
# Procedure: BHK cells stably expressing the human NK3 receptor were seeded in 100 µl media in black walled clear-base 96-wells plates (Costar) aiming at a confluency of 95-100% at the day of assay. The assay was performed according to the FLIPR Calcium 4 Assay kit (Molecular Devices). At the day of the assay, the media was removed and the cells were washed once with the HBSS buffer (Hanks BSS buffer, pH 7,4 containing 20 mM Hepes) before 100 µl of a solution of the calcium assay reagent dissolved in the HBSS buffer containing 2,5 mM probinicid was added to the cells. The plates were incubated for 60 min at 34°C, 10% CO2 before use in the FLIPR for examination of fluorescence.
# For efficacy and potency evaluation of compounds, these were diluted in HBSS buffer prior to test. For test of agonist activity, 25 µl of the diluted compound solution was added and the plate was analyzed for 5 minutes in the FLIPR. […] The plates were subsequently analyzed for 5 minutes before the assay was terminated. The maximal increase in fluorescence over background following each ligand addition was determined.
# [3] = table of Example 10, affinity obtained as described in Example 9, read-out: Affinity Ki
# [4] = Ki for the NK3 receptor, table of Example 9, 125I-NKB competition binding, read-out: Ki
Compound,Ki (human NK3 receptor [1]; [3]),IC50 (human NK3 receptor [2]),Ki (human NK3 receptor [1]; [4])
CC[C@H](NC(=O)c1c(CN2CCCC2=O)n(-c2ccccc2)c(=O)c2c(Cl)cccc12)c1ccccc1 [Example 3b],32 nM,47 nM,
"Cc1c(C(=O)NN(c2ccccc2)c2ccccc2)c2ccccc2c(=O)n1-c1ccccc1 [Example 5a, 3-Methyl-1-oxo-2 phenyl-1,2-dihydro-isoquinoline-4-carboxylic acid N',N'-diphenyl-hydrazide]",,,55 nM
"CC[C@H](NC(=O)c1c(CN2CCN(CCN3CCOCC3)CC2)n(-c2ccccc2)c(=O)c2ccccc12)c1ccccc1 [Example 2bm, 3-[4-(2-Morpholin-4-yl-ethyl)-piperazin-1-ylmethyl]-1-oxo-2-phenyl-1,2-dihydro-isoquinoline-4-carboxylic acid ((S)-1-phenyl-propyl)-amide]",8.8 nM,14 nM,8.2 nM
"CC[C@H](NC(=O)c1c(CN2CCCC2=O)n(-c2ccccc2)c(=O)c2ccccc12)c1ccccc1 [Example 3a, 1-Oxo-3-(2-oxo-pyrrolidin-1-ylmethyl)-2-phenyl-1,2-dihydro-isoquiline-4-carboxylic acid ((S)-1-phenyl-propyl)-amide]",88 nM,270 nM,72 nM
"Cc1c(C(=O)N[C@H](c2cccc(F)c2)C2CC2)c2cccc(Cl)c2c(=O)n1-c1ccccc1 [Example 1t, 8-Chloro-3-methyl-1-oxo-2-phenyl-1,2-dihydro-isoquinoline-4-carboxylic acid [(S)-cyclopropyl-(3-fluoro-phenyl)-methyl]-amide]",27 nM,44 nM,
"CC(C)(C)N1CCC(Cc2c(C(=O)N[C@H](c3cccc(F)c3)C3CC3)c3cccc(Cl)c3c(=O)n2-c2ccccc2)CC1 [Example 8a, 3-(1-tert-Butyl-piperidin-4-ylmethyl)-8-chloro-1-oxo-2 phenyl-1,2-dihydro-isoquinoline-4-carboxylic acid [(S)-cyclopropyl-(3-fluoro-phenyl)-methyl]-amide]",7 nM,9.9 nM,
"CC(=O)N(C)C1(c2ccccc2)CCN(Cc2c(C(=O)NC(c3cccc(F)c3)C3CC3)c3ccccc3c(=O)n2-c2ccccc2)CC1 (stereo not drawn) [Example 2ia, 3-[4-(Acetyl-methyl-amino)-4-phenyl-piperidin-1-ylmethyl]-1-oxo-2-phenyl-1,2-dihydro-isoquinoline-4-carboxylic acid [cyclopropyl-(3-fluoro-phenyl)-methyl]-amide]",12 nM,100 nM,
"CC[C@H](NC(=O)c1c(CN2CCC(O)(c3cccc(OC)c3)CC2)n(-c2ccccc2)c(=O)c2c(Cl)cccc12)c1ccccc1 [Example 2kn, 8-Chloro-3-[4-hydroxy-4-(3-methoxy-phenyl)-piperidin-1-ylmethyl]-1-oxo-2-phenyl-1,2-dihydro-isoquinoline-4-carboxylic acid ((S)-1-phenyl-propyl)-amide]",8.7 nM,41 nM,
"COc1cccc(C2(O)CCN(Cc3c(C(=O)NC(c4cccc(F)c4)C4CC4)c4ccccc4c(=O)n3-c3ccccc3)CC2)c1 (stereo not drawn) [Example 2hz, 3-[4-Hydroxy-4-(3-methoxy-phenyl)-piperidin-1-ylmethyl]-1-oxo-2-phenyl-1,2-dihydro-isoquinoline-4-carboxylic acid [cyclopropyl-(3-fluoro-phenyl)-methyl]-amide]",4.5 nM,35 nM,3 nM
"O=C(NC(c1cccc(F)c1)C1CC1)c1c(CN2CCN(Cc3ccncc3)CC2)n(-c2ccccc2)c(=O)c2ccccc12 (stereo not drawn) [Example 2hw, 1-Oxo-2-phenyl-3-(4-pyridin4-methyl-piperazin-1-ylmethyl)-1,2-dihydro-isoquinoline-4-carboxylic acid [cyclopropyl-(3-fluoro-phenyl)-methyl]-amide]",8.2 nM,63 nM,
"Cc1c(C(=O)N[C@H](c2ccccc2)C2CCC2)c2cccc(Cl)c2c(=O)n1-c1ccccc1 [Example 1bn, 8-Chloro-3-methyl-1-oxo-2-phenyl-1,2-dihydro-isoquinoline-4-carboxylic acid ((S)cyclobutyl-phenyl-methyl)-amide]",23 nM,23 nM,
"CC[C@H](NC(=O)c1c(CNC(C)(C)C)n(-c2ccccc2)c(=O)c2ccccc12)c1ccccc1 [Example 2ec, 3-(tert-Butylamino-methyl)-1-oxo-2-phenyl-1,2-dihydro-isoquinoline-4-carboxylic acid ((S)-1-phenyl-propyl)-amide]",210 nM,520 nM,
"CC[C@H](NC(=O)c1c(CN2CCC(O)(c3cccc(OC)c3)CC2)n(-c2ccccc2)c(=O)c2ccccc12)c1ccccc1 [Example 2gt, 3-[4-Hydroxy-4-(3-methoxy-phenyl)-piperidin-1-ylmethyl]-1-oxo-2-phenyl-1,2-dihydro-isoquinoline-4-carboxylic acid ((S)-1-phenyl-propyl)-amide]",9.2 nM,22 nM,
"CC[C@H](NC(=O)c1c(CN2CCN(C(C)(C)C)CC2)n(-c2ccccc2)c(=O)c2c(F)cccc12)c1ccccc1 [Example 2lj, 3-(4-tert-Butyl-piperazin-1-ylmethyl)-8-fluoro-1-oxo-2-phenyl-1,2-dihydro-isoquinoline-4-carboxylic acid ((S)-1-phenyl-propyl)-amide]",18 nM,16 nM,
"CC(C)(C)N1CCN(Cc2c(C(=O)N[C@H](c3cccc(F)c3)C3CC3)c3cccc(F)c3c(=O)n2-c2ccccc2)CC1 [Example 2ll, 3-(4-tert-Butyl-piperazin-1-ylmethyl)-8-fluoro-1-oxo-2-phenyl-1,2-dihydro-isoquinoline-4-carboxylic acid [(S)-cyclopropyl-(3-fluoro-phenyl)-methyl]-amide]",7.9 nM,6.3 nM,
"O=C(NC(c1cccc(F)c1)C1CC1)c1c(CN2CCC(CCN3CCOCC3)CC2)n(-c2ccccc2)c(=O)c2ccccc12 (stereo not drawn) [Example 2hy, 3-[4-(2-Morpholin-4-yl-ethyl)-piperidin-1-ylmethyl]-1-oxo-2-phenyl-1,2-dihydro-isoquinoline-4-carboxylic acid [cyclopropyl-(3-fluoro-phenyl)-methyl]-amide]",8.8 nM,63 nM,
"Cc1c(C(=O)N[C@@H](c2cccc(F)c2)C2CC2)c2cccc(Cl)c2c(=O)n1-c1ccccc1 [Example 1bl, 8-Chloro-3-methyl-1-oxo-2-phenyl-1,2-dihydro-isoquinoline-4-carboylic acid [(R)-cyclopropyl-(3-fluoro-phenyl)-methyl]-amide]",470 nM,,
"CC[C@H](NC(=O)c1c(CN(C)C)n(-c2ccccc2)c(=O)c2ccccc12)c1ccccc1 [Example 2a, 3-Dimethylarrtinomethyl-1-oxo-2 phenyl-1,2-dihydro-isoquinoline-4-carboxylic acid ((S)-1-phenyl-propyl)-amide]",,,180 nM

# — patent EP2150534B1, “ISOQUINOLINONE DERIVATIVES AS NK3 ANTAGONISTS” (H. Lundbeck A/S, priority 2007, dated 2008)
